Experimental data taken from ChEMBL document CHEMBL1201862, “PubChem BioAssay data set” (2004).
Where “and” joins values, the source holds several entries; their conditions need not be identical. Equal values may be shown once. Where a name gives a salt, the structure may show the parent alone. Calls of active or inactive are those of the source.

Tests used:
[1] = target: Voltage-gated inwardly rectifying potassium channel KCNH2 (Homo sapiens, UniProt Q12809); conditions: Potency;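 note: confirmatory quantitative high-throughput screen measuring inhibition of hERG channel activity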
Albumin = Albumin (Bos taurus, UniProt P02769); experiment: Counterscreen for inhibitors of T-cell receptor (TCR)-CD3 interaction: Fluorescence-based biochemical high throughput dose response assay to identify inhibitors of T-cell receptor (TCR)-CD3 interaction using a TAMRA-labeled BSA probe.; type: functional
[2] = cytotoxicity in HEK-293T cells, dose response, cytotoxicity control for BCR NF-kB inhibitor project, luminescence, B-cell screen hits (AID 489021); type: functional, cell-based;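 note: HEK-293T cells carrying an NF-kB luciferase reporter; cells exposed to compound for about 14 hours before viability readout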
Paired box protein Pax-8 = Paired box protein Pax-8 (Homo sapiens, UniProt Q06710); experiment: inhibitors of PAX8-driven TPO luciferase reporter, dose response, RMG-I cells, cherry-pick (AID 687027); type: functional, cell-based;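 note: luciferase reporter driven by Pax8 target thyroperoxidase promoter measured by SteadyGlo luminescence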
[3] = target: T1, Heat shock factor protein 1 (Mus musculus, UniProt P38532); experiment: inhibition of MG132-induced HSE-luciferase signal, confirmation, cell-based, NIH3T3, luminescence, dose retest (AID 2382); type: functional;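 note: NIH3T3 fibroblasts with HSF1-driven luciferase reporter stressed by proteasome inhibitor MG132; luminescence from HSF1-driven luciferase expression after 8 hours of MG132 stress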
T1 sequence (P38532 whole entry): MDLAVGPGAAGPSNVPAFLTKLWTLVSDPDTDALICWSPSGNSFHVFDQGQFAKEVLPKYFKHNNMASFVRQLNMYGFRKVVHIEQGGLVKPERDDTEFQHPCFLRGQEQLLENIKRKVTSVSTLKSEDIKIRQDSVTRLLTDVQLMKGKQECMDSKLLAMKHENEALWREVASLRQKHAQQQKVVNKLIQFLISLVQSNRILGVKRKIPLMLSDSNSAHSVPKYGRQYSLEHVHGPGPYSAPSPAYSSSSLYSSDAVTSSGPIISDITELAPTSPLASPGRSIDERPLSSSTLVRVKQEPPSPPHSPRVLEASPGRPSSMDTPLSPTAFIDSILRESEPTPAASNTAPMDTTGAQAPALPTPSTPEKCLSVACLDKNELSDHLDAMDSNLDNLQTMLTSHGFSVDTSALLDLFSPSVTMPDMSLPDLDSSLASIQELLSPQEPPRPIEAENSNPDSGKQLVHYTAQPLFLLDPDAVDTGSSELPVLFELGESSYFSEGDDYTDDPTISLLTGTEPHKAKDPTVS

[4] = Luminescence Cell-Based Dose Retest to Confirm Inhibitors of Cancer Stem Cells. [Related pubchem assays (depositor defined):AID2717, AID2721]; type: functional; conditions: Homo sapiens
HEK293 = experiment: inhibitors of LMP1-driven NF-kB reporter, dose response, cell-based, HEK293, luciferase, cherry-pick (AID 588343); type: functional; conditions: Homo sapiens
cells [5] = type: functional, cell-based
[6] = inhibitors of intracellular T. cruzi replication, confirmation, NIH3T3 host cells, beta-gal luminescence (AID 2044); type: functional, cell-based;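 note: intracellular parasites grown in NIH/3T3 mouse fibroblasts as host cells; luminescent beta-galactosidase reporter signal from transgenic T. cruzi replicating inside host cells; inhibitors lower the luminescence signal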
cells [7] = type: functional, cell-based; remark: listed apart in the source
[8] = cytotoxicity toward NIH3T3 fibroblasts, dose response, counter-screen, cell-based, ATP luminescence, mouse fibroblasts (AID 2010); type: functional;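 note: cells exposed to compound for about 90 hours before reading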
Nonstructural protein 1 = Nonstructural protein 1 (Influenza A virus, UniProt Q194T2); type: functional, Influenza A virus (A/California/07/2009(H1N1))
[9] = target: T2, Microphthalmia-associated transcription factor (Homo sapiens, UniProt O75030); experiment: TRPM1 promoter luciferase signal decrease, dose response, MITF inhibitor project, cell-based, SK-MEL-5, cherry-picked, set 3 (AID 493073); type: functional
T2 sequence (O75030 whole entry): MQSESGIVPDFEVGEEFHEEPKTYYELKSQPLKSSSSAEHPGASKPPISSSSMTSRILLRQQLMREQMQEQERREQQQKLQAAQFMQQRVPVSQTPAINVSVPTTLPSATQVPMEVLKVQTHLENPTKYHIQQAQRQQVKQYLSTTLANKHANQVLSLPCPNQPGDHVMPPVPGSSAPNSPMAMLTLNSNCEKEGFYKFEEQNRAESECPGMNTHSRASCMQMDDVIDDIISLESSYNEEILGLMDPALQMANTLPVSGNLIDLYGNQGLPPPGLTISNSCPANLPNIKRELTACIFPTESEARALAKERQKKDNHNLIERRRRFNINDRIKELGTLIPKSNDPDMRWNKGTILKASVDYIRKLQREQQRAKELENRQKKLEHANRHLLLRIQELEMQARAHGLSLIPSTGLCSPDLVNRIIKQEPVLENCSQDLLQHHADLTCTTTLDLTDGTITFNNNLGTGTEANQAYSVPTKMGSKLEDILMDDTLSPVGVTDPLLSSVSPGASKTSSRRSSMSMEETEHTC

INS1 = experiment: beta cell apoptosis inhibitors, cytokine rescue, dose response, luminescence, retest (AID 449756); type: functional, cell-based; conditions: Rattus norvegicus;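 note: cell death triggered by IL-1 beta plus TNF-alpha plus IFN-gamma mixture; protective hits raise ATP signal compared with cytokine alone wells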
H9c2 = experiment: cells; type: functional, cell-based; conditions: Rattus norvegicus, H9c2, Myocardium;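 note: confirmatory concentration-response retest of ultra-high-throughput screening hits for modulation of myocardial damage; cell death induced by hydrogen peroxide oxidative stress; compound pretreatment for 60 min then peroxide exposure for 2 h; potency is for protecting the cells against peroxide damage rather than for killing them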
[10] = Shn3 3'UTR reporter inhibitors, dose response, cell-based, Clone20 osteoblasts, firefly luciferase, cherry-picked (AID 624132); type: functional;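 note: firefly luciferase luminescence from reporter carrying the Shn3 3'UTR in osteoblasts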
[11] = HepG2 cell cytotoxicity, dose response, cytotoxicity control for Shn3 inhibitor project, CellTiter-Glo, cherry-picked (AID 624134); type: functional, cell-based
[12] = control 3'UTR Renilla luciferase suppression, dose response, counter-screen for Shn3 inhibitor project, cell-based, Clone20-Shn3RL, cherry-picked (AID 624133); type: functional
[13] = M. tuberculosis H37Rv growth inhibitors, H37Rv strain (AID 1626); type: functional
[14] = growth suppression of PTEN-null colon cells, dose response, cell-based, HCT116 PTEN knockout (AID 1047); type: functional;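 note: HCT116 colon tumor cells with PTEN knocked out; cells exposed to compound for 60 hours before readout; potency for loss of cell viability measured by luminescence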
[15] = growth suppression of beta-catenin-knockout colon cells, dose response, cell-based, HCT116, human colon tumor (AID 1045); type: functional;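 note: HCT116 colon tumor cells with beta catenin knocked out; cells exposed to compound for 60 hours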
[16] = target: T1, Heat shock factor protein 1; experiment: HSF1 potentiators in luciferase reporter cells, confirmation, cell-based, NIH3T3, luminescence, dose retest (AID 435004); type: functional;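 note: stress induced by proteasome inhibitor MG132 added 30 min after compound; luciferase reporter driven by HSF1 response element in NIH3T3 cells; actives raise luminescence as potentiators of the MG132 stress response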
[17] = target: FAD-linked sulfhydryl oxidase ALR (Homo sapiens, UniProt P55789); experiment: inhibitors of human ALR sulfhydryl oxidase, dose response, biochemical, H2O2 detection, luminescence, cherry-pick (AID 493248)
[18] = HEp-2 cell cytotoxicity, dose response, cytotoxicity control for RSV inhibitor project, HTS (AID 2410); type: functional; conditions: human respiratory syncytial virus
[19] = target: Heat shock protein HSP 90-alpha (Homo sapiens, UniProt P07900); type: functional, organism-based
Cytochrome P450 3A4 = Cytochrome P450 3A4 (Homo sapiens, UniProt P08684);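 note: CYP3A4 tested as one member of a cytochrome P450 panel screen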
Cytochrome P450 2C9 [20] = target: T3, Cytochrome P450 2C9 (Homo sapiens, UniProt P11712)
Cytochrome P450 2C9 [21] = target: T3, Cytochrome P450 2C9; remark: listed apart in the source
[22] = intracellular Trypanosoma cruzi inhibitors in host cells – cell-based, plate reader, cherry-pick samples, set 3, dose response (AID 651818); type: functional;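 note: compounds incubated with infected cells for about four days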
[23] = inhibitors of HIV Env-driven cell fusion, dose response, cherry-pick (AID 652057); type: functional, cell-based
[24] = ZM109 Env clade C HIV-1 fusion inhibitors, dose response, HeLa effector, CEM target cells, luciferase, cherry-pick (AID 652058); type: functional, cell-based
[25] = inhibitors of clade B AD8 Env fusion, dose response, cell-based, cherry-pick (AID 652062); type: functional;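 note: luciferase signal from cell-cell fusion driven by HIV-1 clade B AD8 Env; potency is for inhibitors of fusion seen as a drop in luminescence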
Fatty acid synthase [26] = target: T4, Fatty acid synthase (Homo sapiens, UniProt P49327); experiment: FAS thioesterase domain inhibitors, dose response, biochemical, endpoint fluorescence intensity, uHTS hits (AID 624327); type: functional;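 note: fluorescence from hydrolysis of an O-methyl fluorescein acyl ester substrate by the enzyme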
Fatty acid synthase [27] = target: T4, Fatty acid synthase; experiment: FAS thioesterase domain inhibitors, dose response, biochemical, kinetic fluorescence intensity (AID 624326); type: functional;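 note: rate of fluorescence rise from hydrolysis of a fluorogenic O-methyl fluorescein ester substrate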
[28] = target: Glucose-6-phosphate 1-dehydrogenase (Homo sapiens, UniProt P11413); experiment: human G6PD enzyme inhibitors, dose response, selectivity assay for P. falciparum G6PD inhibitor project, biochemical, fluorescence (AID 504792); type: functional
[29] = THP-1 cell cytotoxicity, dose response, cytotoxicity control for Vif-APOBEC3G degradation inhibitor project, THP-1 cells (AID 1117359); type: functional; conditions: Human immunodeficiency virus 1, THP-1
[30] = target: T5, Ubiquitin-conjugating enzyme E2 N (Homo sapiens, UniProt P61088); type: functional;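 note: Dose-response confirmation in a TR-FRET assay detecting UBC13-driven polyubiquitin chain formation, inhibition measured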
T5 sequence (P61088 whole entry): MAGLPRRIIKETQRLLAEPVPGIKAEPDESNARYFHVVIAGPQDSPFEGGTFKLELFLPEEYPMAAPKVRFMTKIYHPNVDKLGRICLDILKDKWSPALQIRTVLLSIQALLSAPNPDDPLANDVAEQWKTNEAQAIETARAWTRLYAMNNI

Chain of Voltage-gated inwardly rectifying potassium channel KCNH2 (Q12809 whole entry): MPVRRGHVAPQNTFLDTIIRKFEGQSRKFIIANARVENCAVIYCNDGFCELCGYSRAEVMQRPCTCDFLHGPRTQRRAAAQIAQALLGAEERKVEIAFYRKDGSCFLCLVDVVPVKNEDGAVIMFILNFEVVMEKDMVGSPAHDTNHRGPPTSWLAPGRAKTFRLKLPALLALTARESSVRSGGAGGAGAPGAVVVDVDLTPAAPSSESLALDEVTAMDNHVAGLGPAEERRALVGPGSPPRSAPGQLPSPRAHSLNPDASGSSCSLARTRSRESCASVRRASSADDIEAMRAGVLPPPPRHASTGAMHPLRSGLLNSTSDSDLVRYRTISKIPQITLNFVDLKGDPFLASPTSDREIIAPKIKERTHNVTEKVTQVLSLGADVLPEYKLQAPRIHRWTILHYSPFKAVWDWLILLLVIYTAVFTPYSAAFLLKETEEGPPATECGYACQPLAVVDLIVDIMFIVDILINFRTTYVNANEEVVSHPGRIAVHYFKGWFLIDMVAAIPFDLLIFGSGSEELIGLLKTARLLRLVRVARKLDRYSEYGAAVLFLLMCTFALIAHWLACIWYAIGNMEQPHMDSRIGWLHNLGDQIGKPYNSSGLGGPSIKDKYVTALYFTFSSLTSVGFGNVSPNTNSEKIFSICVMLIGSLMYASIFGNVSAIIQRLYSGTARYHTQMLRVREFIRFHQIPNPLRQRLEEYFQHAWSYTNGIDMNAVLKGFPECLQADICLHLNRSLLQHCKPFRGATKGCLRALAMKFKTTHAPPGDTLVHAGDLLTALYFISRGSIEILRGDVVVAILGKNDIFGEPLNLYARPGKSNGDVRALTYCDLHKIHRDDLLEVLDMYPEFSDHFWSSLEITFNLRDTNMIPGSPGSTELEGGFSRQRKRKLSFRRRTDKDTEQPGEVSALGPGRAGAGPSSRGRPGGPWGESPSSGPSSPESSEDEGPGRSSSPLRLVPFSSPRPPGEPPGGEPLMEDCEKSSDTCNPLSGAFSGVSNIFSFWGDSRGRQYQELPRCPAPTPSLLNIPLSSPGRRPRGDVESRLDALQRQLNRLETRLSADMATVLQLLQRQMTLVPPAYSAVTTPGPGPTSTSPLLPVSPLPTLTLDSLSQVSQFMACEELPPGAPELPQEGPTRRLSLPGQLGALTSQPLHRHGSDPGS
T4 sequence (P49327 whole entry, the tested form may be a part): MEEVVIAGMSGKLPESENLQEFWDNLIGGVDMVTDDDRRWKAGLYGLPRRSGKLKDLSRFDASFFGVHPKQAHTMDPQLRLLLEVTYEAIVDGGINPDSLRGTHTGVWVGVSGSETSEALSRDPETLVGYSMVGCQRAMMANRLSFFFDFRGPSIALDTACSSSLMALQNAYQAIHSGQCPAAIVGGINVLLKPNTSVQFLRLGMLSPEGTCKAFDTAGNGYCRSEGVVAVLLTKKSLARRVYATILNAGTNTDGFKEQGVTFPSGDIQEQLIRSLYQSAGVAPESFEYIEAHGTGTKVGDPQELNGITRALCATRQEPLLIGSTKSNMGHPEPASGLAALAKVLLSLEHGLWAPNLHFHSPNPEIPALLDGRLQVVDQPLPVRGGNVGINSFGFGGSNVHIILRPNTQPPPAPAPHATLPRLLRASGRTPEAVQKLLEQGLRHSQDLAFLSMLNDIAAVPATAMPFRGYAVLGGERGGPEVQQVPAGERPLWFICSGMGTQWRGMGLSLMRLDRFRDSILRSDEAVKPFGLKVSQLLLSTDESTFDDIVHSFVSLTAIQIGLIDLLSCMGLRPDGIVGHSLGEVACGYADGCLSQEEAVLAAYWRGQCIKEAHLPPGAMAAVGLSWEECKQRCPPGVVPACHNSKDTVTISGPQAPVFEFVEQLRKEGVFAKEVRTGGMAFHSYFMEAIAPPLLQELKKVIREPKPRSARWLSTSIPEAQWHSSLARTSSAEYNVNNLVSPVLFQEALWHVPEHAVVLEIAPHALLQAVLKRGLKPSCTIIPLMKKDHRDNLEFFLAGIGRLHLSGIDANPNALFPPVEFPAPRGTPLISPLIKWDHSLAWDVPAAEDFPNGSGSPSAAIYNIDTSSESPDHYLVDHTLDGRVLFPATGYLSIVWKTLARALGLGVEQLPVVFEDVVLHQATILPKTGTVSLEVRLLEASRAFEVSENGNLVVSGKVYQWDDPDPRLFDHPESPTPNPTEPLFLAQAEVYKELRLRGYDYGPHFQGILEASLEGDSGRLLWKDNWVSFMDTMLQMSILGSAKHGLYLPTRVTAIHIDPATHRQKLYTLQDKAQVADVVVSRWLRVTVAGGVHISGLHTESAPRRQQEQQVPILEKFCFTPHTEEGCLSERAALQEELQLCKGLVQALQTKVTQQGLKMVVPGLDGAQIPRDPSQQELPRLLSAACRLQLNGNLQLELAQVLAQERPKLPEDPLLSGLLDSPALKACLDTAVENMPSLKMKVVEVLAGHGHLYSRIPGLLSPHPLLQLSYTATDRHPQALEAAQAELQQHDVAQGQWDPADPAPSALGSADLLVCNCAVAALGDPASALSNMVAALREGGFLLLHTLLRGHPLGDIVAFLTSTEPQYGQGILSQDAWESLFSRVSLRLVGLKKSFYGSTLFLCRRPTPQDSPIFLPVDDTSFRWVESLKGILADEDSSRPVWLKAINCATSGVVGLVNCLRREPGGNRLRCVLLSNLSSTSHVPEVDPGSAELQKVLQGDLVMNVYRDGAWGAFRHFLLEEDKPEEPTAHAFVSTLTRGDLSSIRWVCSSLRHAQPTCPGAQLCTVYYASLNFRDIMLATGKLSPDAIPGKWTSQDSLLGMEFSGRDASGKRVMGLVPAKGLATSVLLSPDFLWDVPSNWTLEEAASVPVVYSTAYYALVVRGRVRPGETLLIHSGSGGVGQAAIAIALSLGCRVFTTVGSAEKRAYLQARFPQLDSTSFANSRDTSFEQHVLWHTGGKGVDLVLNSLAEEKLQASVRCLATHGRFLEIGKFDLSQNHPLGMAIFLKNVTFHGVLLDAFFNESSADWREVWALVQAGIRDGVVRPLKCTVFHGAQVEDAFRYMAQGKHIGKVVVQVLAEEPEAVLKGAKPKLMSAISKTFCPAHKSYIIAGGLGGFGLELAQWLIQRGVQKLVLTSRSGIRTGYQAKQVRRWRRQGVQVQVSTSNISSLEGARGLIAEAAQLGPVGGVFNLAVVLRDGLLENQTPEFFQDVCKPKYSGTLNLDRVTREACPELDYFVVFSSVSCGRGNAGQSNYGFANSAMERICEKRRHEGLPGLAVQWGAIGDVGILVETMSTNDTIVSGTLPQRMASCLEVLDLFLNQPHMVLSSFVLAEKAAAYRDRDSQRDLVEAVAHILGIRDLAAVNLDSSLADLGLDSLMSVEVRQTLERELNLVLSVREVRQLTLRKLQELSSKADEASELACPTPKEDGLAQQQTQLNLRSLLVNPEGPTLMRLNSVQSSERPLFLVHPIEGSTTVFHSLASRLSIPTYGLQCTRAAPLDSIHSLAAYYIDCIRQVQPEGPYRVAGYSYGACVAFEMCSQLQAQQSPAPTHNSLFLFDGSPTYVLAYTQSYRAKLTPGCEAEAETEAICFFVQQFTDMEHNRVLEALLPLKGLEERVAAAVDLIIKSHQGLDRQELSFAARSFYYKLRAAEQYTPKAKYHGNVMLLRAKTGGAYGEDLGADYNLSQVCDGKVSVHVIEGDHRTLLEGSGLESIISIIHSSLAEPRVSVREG
T3 sequence (P11712 whole entry): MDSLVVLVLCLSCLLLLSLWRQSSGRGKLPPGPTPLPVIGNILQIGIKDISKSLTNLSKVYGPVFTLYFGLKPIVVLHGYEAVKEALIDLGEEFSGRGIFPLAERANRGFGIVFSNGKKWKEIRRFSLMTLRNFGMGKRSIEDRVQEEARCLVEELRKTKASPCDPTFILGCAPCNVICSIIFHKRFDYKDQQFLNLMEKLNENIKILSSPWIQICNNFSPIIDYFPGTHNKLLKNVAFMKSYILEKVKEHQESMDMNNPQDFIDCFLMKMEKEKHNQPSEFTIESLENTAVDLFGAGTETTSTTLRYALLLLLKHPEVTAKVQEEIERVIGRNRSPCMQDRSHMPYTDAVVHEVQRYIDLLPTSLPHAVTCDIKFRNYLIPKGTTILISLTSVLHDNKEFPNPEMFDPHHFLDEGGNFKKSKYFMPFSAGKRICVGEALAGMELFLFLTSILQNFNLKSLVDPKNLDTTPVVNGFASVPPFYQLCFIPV
Chain of Cytochrome P450 3A4 (P08684 whole entry): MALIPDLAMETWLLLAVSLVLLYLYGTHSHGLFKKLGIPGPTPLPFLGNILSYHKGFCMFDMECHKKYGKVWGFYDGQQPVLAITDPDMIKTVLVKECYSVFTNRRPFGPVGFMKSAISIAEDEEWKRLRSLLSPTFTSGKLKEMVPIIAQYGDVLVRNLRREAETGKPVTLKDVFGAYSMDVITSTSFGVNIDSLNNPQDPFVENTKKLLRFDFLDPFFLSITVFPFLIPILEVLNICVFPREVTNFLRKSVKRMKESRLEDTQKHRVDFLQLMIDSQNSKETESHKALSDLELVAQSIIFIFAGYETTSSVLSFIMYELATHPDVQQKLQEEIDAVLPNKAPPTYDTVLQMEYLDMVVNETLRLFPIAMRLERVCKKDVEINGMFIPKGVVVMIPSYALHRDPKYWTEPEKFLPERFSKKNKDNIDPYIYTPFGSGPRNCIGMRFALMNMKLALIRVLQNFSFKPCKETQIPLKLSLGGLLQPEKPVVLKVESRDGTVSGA
Chain of Nonstructural protein 1 (Q194T2 whole entry): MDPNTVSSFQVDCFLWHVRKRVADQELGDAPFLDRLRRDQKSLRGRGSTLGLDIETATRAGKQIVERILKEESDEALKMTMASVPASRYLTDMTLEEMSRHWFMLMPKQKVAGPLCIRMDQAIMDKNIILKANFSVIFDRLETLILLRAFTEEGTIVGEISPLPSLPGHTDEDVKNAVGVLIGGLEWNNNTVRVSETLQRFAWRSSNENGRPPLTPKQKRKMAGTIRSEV
Chain of FAD-linked sulfhydryl oxidase ALR (P55789 whole entry): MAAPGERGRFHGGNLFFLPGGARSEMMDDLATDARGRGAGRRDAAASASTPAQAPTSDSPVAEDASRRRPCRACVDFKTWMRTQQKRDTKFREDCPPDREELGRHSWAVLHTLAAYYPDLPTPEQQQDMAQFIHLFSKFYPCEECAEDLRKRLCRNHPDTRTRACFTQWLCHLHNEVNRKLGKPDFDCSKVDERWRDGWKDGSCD

CC1CCN(CC[C@H]2CCCN2S(=O)(=O)c2cccc(O)c2)CC1
AC50 [1]: 22.4 µM (inconclusive)

COc1ccccc1C(=O)NNC(=O)c1ccc(NC(=O)CC(C)C)cc1
IC50 (Albumin): > 94.1 µM (inactive)

O=C(Nc1cccc(Br)c1)c1ccc2c(c1)SC1=NS(=O)(=O)CCN12
IC50 [2]: > 80 µM (inactive)
AC50 (Paired box protein Pax-8): 3.32 µM (active)

OCCN(CCO)CC(O)COc1ccc(C23CC4CC(CC(C4)C2)C3)cc1 (stereo unspecified)
EC50 [3]: 3.11 µM (active)
AC50 [4]: 1.05 µM (active)
AC50 (HEK293): 7.62 µM (active)

O=C(Nc1nc(-c2ccccn2)cs1)c1ccccc1-n1cnnn1
EC50 (cells [5]): 10.6 µM (active)
EC50 [6]: 1.93 µM (active)
EC50 (cells [7]): 64.3 µM (active)
EC50 [8]: 4.31 µM (active)
IC50 (Nonstructural protein 1): 5.44 µM (active)
AC50 [9]: 6.96 µM (active)
AC50 (INS1): 1.3 µM (active)
IC50 (H9c2): > 79 µM (inactive)
AC50 [10]: 1.71 µM (active)
AC50 [11]: 5.46 µM (active)
AC50 [12]: 2.75 µM (active)

CC(=O)c1cn(CCOc2cc(C)ccc2C)c2ccccc12
IC50 [2]: > 80 µM (inactive)
AC50 (INS1): 3.62 µM (active)
AC50 [10]: 1.18 µM (active)
AC50 [11]: 2.19 µM (active)
AC50 [12]: 2.03 µM (active)

O=C1CCNc2ccc(-c3ccccc3)cc21
IC50 [13]: > 100 µM (active)

COc1cc(/C=C(\C#N)C(=O)NC2CCCCC2C)ccc1OS(=O)(=O)c1ccc(C)cc1 (stereo unspecified)
IC50 [13]: > 100 µM (active)
EC50 [14]: 10.7 µM (active)
EC50 [15]: 9.24 µM (active)
AC50 [4]: 5.32 µM (active)
EC50 [16]: 2.17 µM (active)

CNC(=O)c1cc(Nc2nnc(-c3ccc(O)cc3)c3ccccc23)ccc1OC
AC50 [17]: 3.86 µM (active)
IC50 [2]: > 80 µM (inactive)

CC1CCCCC1NC(=O)/C(C#N)=C/c1ccccc1F (stereo unspecified)
CC50 [18]: 21.3 µM (active)
AC50 [4]: 5.53 µM (active)
AC50 [9]: 14.4 µM (active)
AC50 [19]: 0.94 µM (active)

N#Cc1ccccc1COc1ccc(/C=C/C(=O)O)cc1
IC50 [2]: > 80 µM (inactive)

COC(=O)c1ccc(NC(=O)CSC2=NCCN2)cc1
IC50 [13]: > 100 µM (active)

CCOc1ccc(N2C(=O)c3ccccc3C2=O)cc1
IC50 [13]: > 100 µM (active)

Cc1cc(NC(=O)CCCN2C(=O)/C(=C/c3ccccc3Cl)SC2=S)no1
IC50 [2]: > 80 µM (inactive)

Oc1ccc(C=NNC(=S)Nc2ccccc2)nc1
AC50 (HEK293): 14.6 µM (active)

COc1[nH]c2ccc(F)cc2c1C(=O)OCC1CCN(CCNS(C)(=O)=O)CC1.NS(=O)(=O)O
AC50 (Cytochrome P450 3A4): 12.6 µM (inconclusive) and 31.6 µM (inconclusive)
AC50 (Cytochrome P450 2C9 [20]): 39.8 µM (inconclusive)
AC50 [1]: 35.5 µM (inconclusive)
AC50 (Cytochrome P450 2C9 [21]): inconclusive

C[C@@H]1CCCCO[C@H](CN(C)C(=O)Nc2ccc(C(F)(F)F)cc2)[C@@H](C)CN([C@H](C)CO)C(=O)c2cc(NC(=O)Nc3ccccc3)ccc2O1
AC50 [22]: 2.02 µM (active)

C[C@@H]1CN([C@H](C)CO)C(=O)Cc2cc(NC(=O)Nc3ccc(C(F)(F)F)cc3)ccc2O[C@@H]1CN(C)Cc1ccc(C(=O)Nc2ccccc2N)cc1
AC50 [22]: 2.41 µM (active)

C[C@H]1CN([C@@H](C)CO)C(=O)Cc2cc(NC(=O)Nc3cccc4ccccc34)ccc2O[C@H]1CN(C)Cc1ccc(C(F)(F)F)cc1
AC50 [22]: 5.49 µM (active)

C[C@@H]1CN([C@H](C)CO)C(=O)Cc2cc(NC(=O)C3CCCCC3)ccc2O[C@@H]1CN(C)Cc1ccc(C(=O)Nc2ccccc2N)cc1
AC50 [22]: 3.51 µM (active)

COc1ccc(NC(=O)Nc2ccc3c(c2)CC(=O)N([C@@H](C)CO)C[C@H](C)[C@@H](CN(C)Cc2ccc(C(=O)Nc4ccccc4N)cc2)O3)cc1
AC50 [22]: 3.65 µM (active)

CO[C@H](CN(C)S(=O)(=O)c1ccc(Cl)cc1)[C@H](C)CN([C@@H](C)CO)S(=O)(=O)c1cccc(Cl)c1
AC50 [23]: 3.31 µM (active)
AC50 [24]: 3.66 µM (active)
AC50 [25]: 17.6 µM (active)

O=C(C[C@H]1C[C@H]2c3cc(NC(=O)NC4CCCC4)ccc3O[C@H]2[C@@H](CO)O1)NC1CCCCC1
AC50 [24]: 24.5 µM (active)
AC50 [25]: 1.17 µM (active)

O=C(NC(C(=O)N/N=C/c1cc([N+](=O)[O-])ccc1O)c1nnc(O)c2ccccc12)c1ccccc1 (stereo unspecified)
IC50 (Fatty acid synthase [26]): 2.76 µM (active)
IC50 (Fatty acid synthase [27]): 2.55 µM (active)
IC50 (Albumin): > 94.1 µM (inactive)

C=CCN1CCc2cccc3c2[C@H]1Cc1ccc(O)c(O)c1-3
IC50 [28]: > 80 µM (inactive)
EC50 [16]: > 260 µM (inactive)
CC50 [29]: > 40 µM (active)
AC50 [1]: 11.2 µM (inconclusive)

COc1cc(-c2nc3ccc(N4CCN(C)CC4)cc3[nH]2)cc(OC)c1OC
IC50 [30]: > 20 µM (inactive)
IC50 [2]: > 80 µM (inactive)

NCCc1ccc(S(=O)(=O)F)cc1 [4-AMINOETHYLBENZENESULFONYL FLUORIDE HYDROCHLORIDE]
AC50 [1]: 0.251 µM (inconclusive)

O=NN(CCO)CCO [N-NITROSODOETHANOLAMINE]
AC50 [1]: 3.16 µM (inconclusive)

O=C(Oc1ccccc1)c1ccccc1O [PHENYL SALICYLATE]
AC50 [1]: 50.1 µM (inconclusive)
